Test results reported in patent publication US8748415B2 (priority 2011, dated 2014).
pEC50: −log10 of the molar value.

System: recombinant NL4-3 virus (Renilla luciferase in nef, Gag P373S)
Assay: HIV cell culture assay (luciferase activity in MT-2 cells infected with NLRluc recombinant virus)
Assay type: cell-based
Conditions: NL43, MT-2 cells infected 4-5 days with NLRluc recombinant virus
Outline: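 Activity was read as luciferase output (Dual Luciferase reagents premixed with lysis solution) after 4–5 days of infection in serially diluted inhibitor. Host cells were MT-2 in 10% FBS RPMI. The reporter virus came from transfected 293T cells and was titered on MT-2.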

Structure (SMILES)	pEC50 (class symbol)	pEC50 (numeric value)
C=C(C)[C@@H]1CC[C@]2(CNC(=O)NCCN3CCCC3=O)CC[C@]3(C)[C@H](CC[C@@H]4[C@@]5(C)CC=C(c6ccc(C(=O)O)cc6)C(C)(C)[C@@H]5CC[C@]43C)[C@@H]12 [Example 154, 4-((1R,3aS,5aR,5bR,7aR,11aS,11bR,13aR,13bR)-5a,5b,8,8,11a-pentamethyl-3a-((3-(2-(2-oxopyrrolidin-1-yl)ethyl)ureido)methyl)-1-(prop-1-en-2-yl)-2,3,3a,4,5,5a,5b,6,7,7a,8,11,11a,11b,12,13,13a,13b-octadecahydro-1H-cyclopenta[a]chrysen-9-yl)benzoic acid]	> 7.00	–
C=C(C)[C@@H]1CC[C@]2(CNC(=O)Nc3cccnc3)CC[C@]3(C)[C@H](CC[C@@H]4[C@@]5(C)CC=C(c6ccc(C(=O)O)cc6)C(C)(C)[C@@H]5CC[C@]43C)[C@@H]12 [Example 159, 4-((1R,3aS,5aR,5bR,7aR,11aS,11bR,13aR,13bR)-5a,5b,8,8,11a-pentamethyl-1-(prop-1-en-2-yl)-3a-((3-pyridin-3-ylureido)methyl)-2,3,3a,4,5,5a,5b,6,7,7a,8,11,11a,11b,12,13,13a,13b-octadecahydro-1H-cyclopenta[a]chrysen-9-yl)benzoic acid]	–	8.00
C=C(C)[C@@H]1CC[C@]2(CNCC(=O)N3CCC(F)(F)CC3)CC[C@]3(C)[C@H](CC[C@@H]4[C@@]5(C)CC=C(c6ccc(C(=O)O)cc6)C(C)(C)[C@@H]5CC[C@]43C)[C@@H]12 [Example 115, 4-((1R,3aS,5aR,5bR,7aR,11aS,11bR,13aR,13bR)-3a-((2-(4,4-difluoropiperidin-1-yl)-2-oxoethylamino)methyl)-5a,5b,8,8,11a-pentamethyl-1-(prop-1-en-2-yl)-2,3,3a,4,5,5a,5b,6,7,7a,8,11,11a,11b,12,13,13a,13b-octadecahydro-1H-cyclopenta[a]chrysen-9-yl)benzoic acid]	–	8.52
C=C(C)[C@@H]1CC[C@]2(CNC(=O)[C@H]3CCCN3C)CC[C@]3(C)[C@H](CC[C@@H]4[C@@]5(C)CC=C(c6ccc(C(=O)O)cc6)C(C)(C)[C@@H]5CC[C@]43C)[C@@H]12 [Example 151, 4-((1R,3aS,5aR,5bR,7aR,11aS,11bR,13aR,13bR)-5a,5b,8,8,11a-pentamethyl-3a-(((R)-1-methylpyrrolidine-2-carboxamido)methyl)-1-(prop-1-en-2-yl)-2,3,3a,4,5,5a,5b,6,7,7a,8,11,11a,11b,12,13,13a,13b-octadecahydro-1H-cyclopenta[a]chrysen-9-yl)benzoic acid]	> 7.00	–
C=C(C)[C@@H]1CC[C@]2(CNCCc3ccc(C(=O)O)cc3)CC[C@]3(C)[C@H](CC[C@@H]4[C@@]5(C)CC=C(c6ccc(C(=O)O)cc6)C(C)(C)[C@@H]5CC[C@]43C)[C@@H]12 [Example 47, 4-((1R,3aS,5aR,5bR,7aR,11aS,11bR,13aR,13bR)-3a-((4-carboxyphenethylamino)methyl)-5a,5b,8,8,11a-pentamethyl-1-(prop-1-en-2-yl)-2,3,3a,4,5,5a,5b,6,7,7a,8,11,11a,11b,12,13,13a,13b-octadecahydro-1H-cyclopenta[a]chrysen-9-yl)benzoic acid]	> 7.00	–
C=C(C)[C@@H]1CC[C@]2(CNCCC(=O)N3CCCCC3)CC[C@]3(C)[C@H](CC[C@@H]4[C@@]5(C)CC=C(c6ccc(C(=O)O)cc6)C(C)(C)[C@@H]5CC[C@]43C)[C@@H]12 [Example 96, 4-((1R,3aS,5aR,5bR,7aR,11aS,11bR,13aR,13bR)-5a,5b,8,8,11a-pentamethyl-3a-((3-oxo-3-(piperidin-1-yl)propylamino)methyl)-1-(prop-1-en-2-yl)-2,3,3a,4,5,5a,5b,6,7,7a,8,11,11a,11b,12,13,13a,13b-octadecahydro-1H-cyclopenta[a]chrysen-9-yl)benzoic acid]	> 7.00	–
C=C(C)[C@@H]1CC[C@]2(CNCCC(=O)N3CCC(C(=O)OCC)CC3)CC[C@]3(C)[C@H](CC[C@@H]4[C@@]5(C)CC=C(c6ccc(C(=O)O)cc6)C(C)(C)[C@@H]5CC[C@]43C)[C@@H]12 [Example 98, 4-((1R,3aS,5aR,5bR,7aR,11aS,11bR,13aR,13bR)-3a-((3-(4-(ethoxycarbonyl)piperidin-1-yl)-3-oxopropylamino)methyl)-5a,5b,8,8,11a-pentamethyl-1-(prop-1-en-2-yl)-2,3,3a,4,5,5a,5b,6,7,7a,8,11,11a,11b,12,13,13a,13b-octadecahydro-1H-cyclopenta[a]chrysen-9-yl)benzoic acid]	> 7.00	–
C=C(C)[C@@H]1CC[C@]2(CNC(=O)[C@@H]3CCCN3)CC[C@]3(C)[C@H](CC[C@@H]4[C@@]5(C)CC=C(c6ccc(C(=O)O)cc6)C(C)(C)[C@@H]5CC[C@]43C)[C@@H]12 [Example 136, 4-((1R,3aS,5aR,5bR,7aR,11aS,11bR,13aR,13bR)-5a,5b,8,8,11a-pentamethyl-1-(prop-1-en-2-yl)-3a-(((S)-pyrrolidine-2-carboxamido)methyl)-2,3,3a,4,5,5a,5b,6,7,7a,8,11,11a,11b,12,13,13a,13b-octadecahydro-1H-cyclopenta[a]chrysen-9-yl)benzoic acid]	> 7.00	–
C=C(C)[C@@H]1CC[C@]2(CNC(=O)OCCN3CCCC3=O)CC[C@]3(C)[C@H](CC[C@@H]4[C@@]5(C)CC=C(c6ccc(C(=O)O)cc6)C(C)(C)[C@@H]5CC[C@]43C)[C@@H]12 [Example 162, 4-((1R,3aS,5aR,5bR,7aR,11aS,11bR,13aR,13bR)-5a,5b,8,8,11a-pentamethyl-3a-(((2-(2-oxopyrrolidin-1-yl)ethoxy)carbonylamino)methyl)-1-(prop-1-en-2-yl)-2,3,3a,4,5,5a,5b,6,7,7a,8,11,11a,11b,12,13,13a,13b-octadecahydro-1H-cyclopenta[a]chrysen-9-yl)benzoic acid]	> 7.00	–
C=C(C)[C@@H]1CC[C@]2(CNCCN3CCS(=O)(=O)CC3)CC[C@]3(C)[C@H](CC[C@@H]4[C@@]5(C)CC=C(c6ccc(C(=O)O)cc6F)C(C)(C)[C@@H]5CC[C@]43C)[C@@H]12 [Example 94, 4-((1R,3aS,5aR,5bR,7aR,11aS,11bR,13aR,13bR)-3a-(((2-(1,1-dioxido-4-thiomorpholinyl)ethyl)amino)methyl)-1-isopropenyl-5a,5b,8,8,11a-pentamethyl-2,3,3a,4,5,5a,5b,6,7,7a,8,11,11a,11b,12,13,13a,13b-octadecahydro-1H-cyclopenta[a]chrysen-9-yl)-3-fluorobenzoic acid]	> 7.00	–
C=C(C)[C@@H]1CC[C@]2(CNCc3ccc(S(N)(=O)=O)cc3)CC[C@]3(C)[C@H](CC[C@@H]4[C@@]5(C)CC=C(c6ccc(C(=O)O)cc6)C(C)(C)[C@@H]5CC[C@]43C)[C@@H]12 [Example 35]	> 7.00	–
C=C(C)[C@@H]1CC[C@]2(CNC(=O)NCC(=O)OC)CC[C@]3(C)[C@H](CC[C@@H]4[C@@]5(C)CC=C(c6ccc(C(=O)O)cc6)C(C)(C)[C@@H]5CC[C@]43C)[C@@H]12 [Example 158, 4-((1R,3aS,5aR,5bR,7aR,11aS,11bR,13aR,13bR)-3a-((3-(2-methoxy-2-oxoethyl)ureido)methyl)-5a,5b,8,8,11a-pentamethyl-1-(prop-1-en-2-yl)-2,3,3a,4,5,5a,5b,6,7,7a,8,11,11a,11b,12,13,13a,13b-octadecahydro-1H-cyclopenta[a]chrysen-9-yl)benzoic acid]	> 7.00	–
C=C(C)[C@@H]1CC[C@]2(CNCCC(=O)N3CCn4c(nnc4C(F)(F)F)C3)CC[C@]3(C)[C@H](CC[C@@H]4[C@@]5(C)CC=C(c6ccc(C(=O)O)cc6)C(C)(C)[C@@H]5CC[C@]43C)[C@@H]12 [Example 119]	> 7.00	–
C=C(C)[C@@H]1CC[C@]2(CN(CCCN3CCS(=O)(=O)CC3)C3CC3)CC[C@]3(C)[C@H](CC[C@@H]4[C@@]5(C)CC=C(c6ccc(C(=O)O)cc6)C(C)(C)[C@@H]5CC[C@]43C)[C@@H]12 [Example 84, 4-((1R,3aS,5aR,5bR,7aR,11aS,11bR,13aR,13bR)-3a-((cyclopropyl(3-(1,1-dioxido-4-thiomorpholinyl)propyl)amino)methyl)-1-isopropenyl-5a,5b,8,8,11a-pentamethyl-2,3,3a,4,5,5a,5b,6,7,7a,8,11,11a,11b,12,13,13a,13b-octadecahydro-1H-cyclopenta[a]chrysen-9-yl)benzoic acid]	> 7.00	–
C=C(C)[C@@H]1CC[C@]2(CNCCCN3CCS(=O)(=O)CC3)CC[C@]3(C)[C@H](CC[C@@H]4[C@@]5(C)CC=C(c6ccc(C(=O)NS(=O)(=O)N(C)C)cc6)C(C)(C)[C@@H]5CC[C@]43C)[C@@H]12 [Example 171, N-(dimethylsulfamoyl)-4-((1R,3aS,5aR,5bR,7aR,11aS,11bR,13aR,13bR)-3a-(((3-(1,1-dioxido-4-thiomorpholinyl)propyl)amino)methyl)-1-isopropenyl-5a,5b,8,8,11a-pentamethyl-2,3,3a,4,5,5a,5b,6,7,7a,8,11,11a,11b,12,13,13a,13b-octadecahydro-1H-cyclopenta[a]chrysen-9-yl)benzamide]	> 7.00	–
C=C(C)[C@@H]1CC[C@]2(CNCCC(=O)N3CCN(C)CC3)CC[C@]3(C)[C@H](CC[C@@H]4[C@@]5(C)CC=C(c6ccc(C(=O)O)cc6)C(C)(C)[C@@H]5CC[C@]43C)[C@@H]12 [Example 105, 4-((1R,3aS,5aR,5bR,7aR,11aS,11bR,13aR,13bR)-5a,5b,8,8,11a-pentamethyl-3a-((3-(4-methylpiperazin-1-yl)-3-oxopropylamino)methyl)-1-(prop-1-en-2-yl)-2,3,3a,4,5,5a,5b,6,7,7a,8,11,11a,11b,12,13,13a,13b-octadecahydro-1H-cyclopenta[a]chrysen-9-yl)benzoic acid]	> 7.00	–
